Test results taken from US4684664A, “Derivatives of β-(4-isocyano-1,2,3,4-diepoxycyclopentyl) acrylic acid” (Kureha Kagaku Kogyo Kabushiki Kaisha, priority 1984, dated 1987).
Values after ≈ are worked out from the molar mass of the structure shown.

How the values were obtained:
Type in all cases: cell-based
[1] = tested on: Staphylococcus aureus MS 353; assay: Antibacterial activity, agar-dilution MIC, organism No. 3; conditions: Staphylococcus aureus, MS353; Organism No. 3, bouillon-agar; read-out: Minimum Inhibitory Concentration
Summary of the method: (§1)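 Read-out is the minimum inhibitory concentration, given as μg/ml of the culture medium, obtained by agar dilution using bouillon agar.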

[2] = tested on: Escherichia coli K12 C600 IAM 1264; assay: Antibacterial activity, agar-dilution MIC, organism No. 6; conditions: Escherichia coli, IAM1264; Organism No. 6, bouillon-agar; read-out: Minimum Inhibitory Concentration
Summary of the method: as §1

[3] = tested on: Streptococcus faecium IFO 3826; assay: Antibacterial activity, agar-dilution MIC, organism No. 27; conditions: Enterococcus faecium, IFO3826; Organism No. 27, bouillon-agar; read-out: Minimum Inhibitory Concentration
Summary of the method: as §1

[4] = tested on: Pseudomonas aeruginosa IFO 3445; assay: Antibacterial activity, agar-dilution MIC, organism No. 15; conditions: Pseudomonas aeruginosa, IFO3445; Organism No. 15, bouillon-agar; read-out: Minimum Inhibitory Concentration
Summary of the method: as §1

[5] = tested on: Proteus morganii IFO 3848; assay: Antibacterial activity, agar-dilution MIC, organism No. 18; conditions: Morganella morganii, IFO3848; Organism No. 18, bouillon-agar; read-out: Minimum Inhibitory Concentration
Summary of the method: as §1

Salmonella typhi 901 = assay: Antibacterial activity, agar-dilution MIC, organism No. 9; conditions: Salmonella enterica, TYPHI, read-out: Minimum Inhibitory Concentration
Summary of the method: as §1

[6] = tested on: Bacillus subtilis ATCC 6633; assay: Antibacterial activity, agar-dilution MIC, organism No. 14; conditions: Bacillus subtilis, ATCC6633; Organism No. 14, bouillon-agar; read-out: Minimum Inhibitory Concentration
Summary of the method: as §1

[7] = tested on: Proteus mirabilis IFO 3849; assay: Antibacterial activity, agar-dilution MIC, organism No. 19; conditions: Proteus mirabilis, IFO3849; Organism No. 19, bouillon-agar; read-out: Minimum Inhibitory Concentration
Summary of the method: as §1

[8] = tested on: Pseudomonas aeruginosa NCTC 10490; assay: Antibacterial activity, agar-dilution MIC, organism No. 16; conditions: Pseudomonas aeruginosa, NCTC10490; Organism No. 16, bouillon-agar; read-out: Minimum Inhibitory Concentration
Summary of the method: as §1

[9] = tested on: Proteus rettgeri IFO 3850; assay: Antibacterial activity, agar-dilution MIC, organism No. 22; conditions: Providencia rettgeri, IFO3850; Organism No. 22, bouillon-agar; read-out: Minimum Inhibitory Concentration
Summary of the method: as §1

[10] = tested on: Escherichia coli NIHJ-JC-2; assay: Antibacterial activity, agar-dilution MIC, organism No. 5; conditions: Escherichia coli, NIHJJC2; Organism No. 5, bouillon-agar; read-out: Minimum Inhibitory Concentration
Summary of the method: as §1

[11] = tested on: Aspergillus niger IFO 6342; assay: Antifungal activity, agar-dilution MIC, organism No. 30; conditions: Aspergillus niger, IFO6342; Organism No. 30, bouillon-agar; read-out: Minimum Inhibitory Concentration
Summary of the method: as §1

[12] = tested on: Staphylococcus aureus FDA 209PJc-1; assay: Antibacterial activity, agar-dilution MIC, organism No. 1; conditions: Staphylococcus aureus, FDA209PJC1; Organism No. 1, bouillon-agar; read-out: Minimum Inhibitory Concentration
Summary of the method: as §1

[13] = tested on: Pseudomonas aeruginosa PAO 1; assay: Antibacterial activity, agar-dilution MIC, organism No. 17; conditions: Pseudomonas aeruginosa, PAO1; Organism No. 17, bouillon-agar; read-out: Minimum Inhibitory Concentration
Summary of the method: as §1

[14] = tested on: Salmonella enteritidis G 14; assay: Antibacterial activity, agar-dilution MIC, organism No. 12; conditions: Salmonella enterica, ENTERITIDIS; Organism No. 12, bouillon-agar; read-out: Minimum Inhibitory Concentration
Summary of the method: as §1

Enterobacter cloacae 963 = assay: Antibacterial activity, agar-dilution MIC, organism No. 24; conditions: Enterobacter cloacae, 963; Organism No. 24, bouillon-agar; read-out: Minimum Inhibitory Concentration
Summary of the method: as §1

[15] = tested on: Salmonella paratyphi-A 1015; assay: Antibacterial activity, agar-dilution MIC, organism No. 10; conditions: Salmonella enterica, PARATYPHI, read-out: Minimum Inhibitory Concentration
Summary of the method: as §1

[16] = tested on: Streptococcus pyogenes IFO 3340; assay: Antibacterial activity, agar-dilution MIC, organism No. 26; conditions: Streptococcus pyogenes, IFO3340; Organism No. 26, bouillon-agar; read-out: Minimum Inhibitory Concentration
Summary of the method: as §1

[17] = tested on: Klebsiella pneumoniae PCI-602; assay: Antibacterial activity, agar-dilution MIC, organism No. 7; conditions: Klebsiella pneumoniae, PCI602; Organism No. 7, bouillon-agar; read-out: Minimum Inhibitory Concentration
Summary of the method: as §1

[18] = tested on: Salmonella shottmuelleri 8006; assay: Antibacterial activity, agar-dilution MIC, organism No. 11; conditions: Salmonella, 8006; Organism No. 11, bouillon-agar; read-out: Minimum Inhibitory Concentration
Summary of the method: as §1

[19] = tested on: Streptococcus pyogenes Cook; assay: Antibacterial activity, agar-dilution MIC, organism No. 4; conditions: Streptococcus pyogenes; Organism No. 4, bouillon-agar; read-out: Minimum Inhibitory Concentration
Summary of the method: as §1

[20] = tested on: Staphylococcus aureus Terajima; assay: Antibacterial activity, agar-dilution MIC, organism No. 2; conditions: Staphylococcus aureus; Organism No. 2, bouillon-agar; read-out: Minimum Inhibitory Concentration
Summary of the method: as §1

[21] = tested on: Enterobacter aerogenes ATCC 13048; assay: Antibacterial activity, agar-dilution MIC, organism No. 23; conditions: Klebsiella aerogenes, ATCC13048; Organism No. 23, bouillon-agar; read-out: Minimum Inhibitory Concentration
Summary of the method: as §1

[22] = tested on: Serratia marcescens IAM 1184; assay: Antibacterial activity, agar-dilution MIC, organism No. 13; conditions: Serratia marcescens, IAM1184; Organism No. 13, bouillon-agar; read-out: Minimum Inhibitory Concentration
Summary of the method: as §1

[23] = tested on: Salmonella typhimurium IID 971; assay: Antibacterial activity, agar-dilution MIC, organism No. 8; conditions: Salmonella enterica; Organism No. 8, bouillon-agar; read-out: Minimum Inhibitory Concentration
Summary of the method: as §1

[24] = tested on: Candida albicans IAM 4905; assay: Antifungal activity, agar-dilution MIC, organism No. 29; conditions: Candida albicans, IAM4905; Organism No. 29, bouillon-agar; read-out: Minimum Inhibitory Concentration
Summary of the method: as §1

Proteus vulgaris OX-19 = assay: Antibacterial activity, agar-dilution MIC, organism No. 20; conditions: Proteus vulgaris, OX19; Organism No. 20, bouillon-agar; read-out: Minimum Inhibitory Concentration
Summary of the method: as §1

Proteus vulgaris HX-19 = assay: Antibacterial activity, agar-dilution MIC, organism No. 21; conditions: Proteus vulgaris, HX19; Organism No. 21, bouillon-agar; read-out: Minimum Inhibitory Concentration
Summary of the method: as §1

[25] = tested on: Mycoplasma pneumoniae IID817; assay: Antimycoplasmal activity, MIC by phenol red colour change, organism No. 28; conditions: Mycoplasma, IID817; Organism No. 28, PPLO broth + 1% glucose, 37° C.; read-out: Minimum Inhibitory Concentration (MIC)
Procedure: Mycoplasma pneumoniae IID817 was used as the test microorganism in a culture medium prepared by adding 1% of glucose to "PPLO broth (manufactured by Difco Co.) liquid culture medium" at 37° C. with phenol red as an indicator, thereby culturing the test microorganism.

[26] = tested on: Micrococcus luteus ATCC 9341; assay: Antibacterial activity, agar-dilution MIC, organism No. 25; conditions: Micrococcus luteus, ATCC9341; Organism No. 25, bouillon-agar; read-out: Minimum Inhibitory Concentration
Summary of the method: as §1

Row | SMILES | MIC [1] | MIC [2] | MIC [3] | MIC [4] | MIC [5] | MIC (Salmonella typhi 901) | MIC [6] | MIC [7] | MIC [8] | MIC [9] | MIC [10] | MIC [11] | MIC [12] | MIC [13] | MIC [14] | MIC (Enterobacter cloacae 963) | MIC [15] | MIC [16] | MIC [17] | MIC [18] | other results
1 | [C-]#[N+]C12CC3(/C=C/C(=O)Nc4cc(C(=O)OC)ccc4OC)OC3C1O2 (stereo not drawn) [compound 77] | > 200 µg/mL | > 200 µg/mL | > 200 µg/mL | > 200 µg/mL | 200 µg/mL (≈ 561 µM) | > 200 µg/mL | 100 µg/mL (≈ 281 µM) | > 200 µg/mL | > 200 µg/mL | 200 µg/mL (≈ 561 µM) | > 200 µg/mL | 200 µg/mL (≈ 561 µM) | > 200 µg/mL | > 200 µg/mL | > 200 µg/mL | > 200 µg/mL | > 200 µg/mL | 6.25 µg/mL (≈ 17.5 µM) | 100 µg/mL (≈ 281 µM) | > 200 µg/mL | MIC [19]: > 200 µg/mL; MIC [20]: > 200 µg/mL; MIC [21]: > 200 µg/mL; MIC [22]: > 200 µg/mL; MIC [23]: > 200 µg/mL; MIC [24]: > 200 µg/mL; MIC (Proteus vulgaris OX-19): > 200 µg/mL; MIC (Proteus vulgaris HX-19): 100 µg/mL (≈ 281 µM); MIC [25]: 3.13 µg/mL; MIC [26]: 50 µg/mL (≈ 140 µM)
2 | [C-]#[N+]C12CC3(/C=C/C(=O)Nc4ccc5c(c4)OCO5)OC3C1O2 (stereo not drawn) [compound 64] | 0.2 µg/mL (≈ 0.64 µM) | 12.5 µg/mL (≈ 40 µM) | 12.5 µg/mL (≈ 40 µM) | > 200 µg/mL | 6.25 µg/mL (≈ 20 µM) | 3.13 µg/mL (≈ 10 µM) | 6.25 µg/mL (≈ 20 µM) | > 200 µg/mL | > 200 µg/mL | 3.13 µg/mL (≈ 10 µM) | 25 µg/mL (≈ 80.1 µM) | 6.25 µg/mL (≈ 20 µM) | 0.2 µg/mL (≈ 0.64 µM) | > 200 µg/mL | 3.13 µg/mL (≈ 10 µM) | > 200 µg/mL | 0.39 µg/mL (≈ 1.25 µM) | 1.56 µg/mL (≈ 5 µM) | 0.2 µg/mL (≈ 0.64 µM) | 0.39 µg/mL (≈ 1.25 µM) | MIC [19]: 12.5 µg/mL (≈ 40 µM); MIC [20]: 0.78 µg/mL (≈ 2.5 µM); MIC [21]: > 200 µg/mL; MIC [22]: 50 µg/mL (≈ 160 µM); MIC [23]: 6.25 µg/mL (≈ 20 µM); MIC [24]: 0.39 µg/mL (≈ 1.25 µM); MIC (Proteus vulgaris OX-19): 0.2 µg/mL (≈ 0.64 µM); MIC (Proteus vulgaris HX-19): 0.05 µg/mL (≈ 0.16 µM); MIC [25]: < 0.2 µg/mL; MIC [26]: 0.05 µg/mL (≈ 0.16 µM)
3 | [C-]#[N+]C12CC3(/C=C/C(=O)Nc4ccc(N)cc4)OC3C1O2 (stereo not drawn) [compound 59] | 6.25 µg/mL (≈ 22.1 µM) | 25 µg/mL (≈ 88.2 µM) | 100 µg/mL (≈ 353 µM) | > 200 µg/mL | 3.13 µg/mL (≈ 11 µM) | 6.25 µg/mL (≈ 22.1 µM) | 12.5 µg/mL (≈ 44.1 µM) | > 200 µg/mL | > 200 µg/mL | 200 µg/mL (≈ 706 µM) | 25 µg/mL (≈ 88.2 µM) | 12.5 µg/mL (≈ 44.1 µM) | 6.25 µg/mL (≈ 22.1 µM) | > 200 µg/mL | 6.25 µg/mL (≈ 22.1 µM) | > 200 µg/mL | 6.25 µg/mL (≈ 22.1 µM) | 6.25 µg/mL (≈ 22.1 µM) | 3.13 µg/mL (≈ 11 µM) | 6.25 µg/mL (≈ 22.1 µM) | MIC [19]: 50 µg/mL (≈ 176 µM); MIC [20]: 25 µg/mL (≈ 88.2 µM); MIC [21]: > 200 µg/mL; MIC [22]: 200 µg/mL (≈ 706 µM); MIC [23]: 12.5 µg/mL (≈ 44.1 µM); MIC [24]: 12.5 µg/mL (≈ 44.1 µM); MIC (Proteus vulgaris OX-19): 1.56 µg/mL (≈ 5.51 µM); MIC (Proteus vulgaris HX-19): 1.56 µg/mL (≈ 5.51 µM); MIC [25]: < 0.2 µg/mL; MIC [26]: 0.78 µg/mL (≈ 2.75 µM)
4 | [C-]#[N+]C12CC3(/C=C/C(=O)Nc4ccc5c(c4)CCC5)OC3C1O2 (stereo not drawn) [compound 75] | 0.78 µg/mL (≈ 2.53 µM) | > 200 µg/mL | 1.56 µg/mL (≈ 5.06 µM) | > 200 µg/mL | 3.13 µg/mL (≈ 10.2 µM) | > 200 µg/mL | 1.56 µg/mL (≈ 5.06 µM) | > 200 µg/mL | > 200 µg/mL | > 200 µg/mL | > 200 µg/mL | 200 µg/mL (≈ 649 µM) | 0.39 µg/mL (≈ 1.26 µM) | > 200 µg/mL | > 200 µg/mL | 200 µg/mL (≈ 649 µM) | 0.78 µg/mL (≈ 2.53 µM) | 0.78 µg/mL (≈ 2.53 µM) | 0.78 µg/mL (≈ 2.53 µM) | 1.56 µg/mL (≈ 5.06 µM) | MIC [19]: > 200 µg/mL; MIC [20]: 1.56 µg/mL (≈ 5.06 µM); MIC [21]: > 200 µg/mL; MIC [22]: > 200 µg/mL; MIC [23]: > 200 µg/mL; MIC [24]: 200 µg/mL (≈ 649 µM); MIC (Proteus vulgaris OX-19): 1.56 µg/mL (≈ 5.06 µM); MIC (Proteus vulgaris HX-19): 0.78 µg/mL (≈ 2.53 µM); MIC [25]: < 0.2 µg/mL; MIC [26]: 200 µg/mL (≈ 649 µM)
